Data from the supplement of paper PMC10307832.

Tests used:
Experiment in all cases: relative viability (nuclei count vs DMSO), 5 days (fraction); higher = more cells survive
NCI-H1650 = system: NCI-H1650
Procedure, shortened: (§1)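 Lung cancer cell lines, seeded in 1536-well plates, were treated the following day by pin tool with a single drug or with five library-drug doses (not always all listed) in √10 steps on top of a fixed anchor-drug dose. Cells were fixed and nuclei stained in one step after 5 days, and nuclei were counted. Relative viability is the nuclei count for treated wells divided by that for vehicle wells, reported as medians of duplicate plates.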

EKVX = system: EKVX
Procedure, shortened: as §1

BEN = system: BEN
Procedure, shortened: as §1

HARA = system: HARA
Procedure, shortened: as §1

NCI-H838 = system: NCI-H838
Procedure, shortened: as §1

A-427 = system: A-427
Procedure, shortened: as §1

NCI-H1792 = system: NCI-H1792
Procedure, shortened: as §1

NCI-H650 = system: NCI-H650
Procedure, shortened: as §1

HCC-44 = system: HCC-44
Procedure, shortened: as §1

NCI-H596 = system: NCI-H596
Procedure, shortened: as §1

SK-MES-1 = system: SK-MES-1
Procedure, shortened: as §1

NCI-H358 = system: NCI-H358
Procedure, shortened: as §1

NCI-H1437 = system: NCI-H1437
Procedure, shortened: as §1

NCI-H23 = system: NCI-H23
Procedure, shortened: as §1

COR-L23 = system: COR-L23
Procedure, shortened: as §1

HCC-15 = system: HCC-15
Procedure, shortened: as §1

201T = system: 201T
Procedure, shortened: as §1

NCI-H1975 = system: NCI-H1975
Procedure, shortened: as §1

HCC-827 = system: HCC-827
Procedure, shortened: as §1

COc1cc2nccc(Oc3ccc(NC(=O)Nc4cc(C)on4)c(Cl)c3)c2cc1OC [Tivozanib] + CS(=O)(=O)CCNCc1ccc(-c2ccc3ncnc(Nc4ccc(OCc5cccc(F)c5)c(Cl)c4)c3c2)o1 [Lapatinib] (partner 2 µM) gave a relative viability (NCI-H1650; first compound 0.005 µM) of 0.707, a relative viability (NCI-H1650; first compound 0.01581 µM) of 0.845 and a relative viability (NCI-H1650; first compound 0.05 µM) of 0.836. For the same compound, the relative viability (NCI-H1650; first compound 0.1581 µM) was 0.717, the relative viability (NCI-H1650; first compound 0.5 µM) was 0.721 and the relative viability (EKVX; first compound 0.005 µM) was 0.224. It also gave a relative viability (EKVX; first compound 0.01581 µM) of 0.199, a relative viability (EKVX; first compound 0.05 µM) of 0.216 and a relative viability (EKVX; first compound 0.1581 µM) of 0.182. It also gave a relative viability (EKVX; first compound 0.5 µM) of 0.192, a relative viability (BEN; first compound 0.005 µM) of 0.476 and a relative viability (BEN; first compound 0.01581 µM) of 0.839. It also gave a relative viability (BEN; first compound 0.05 µM) of 0.722, a relative viability (BEN; first compound 0.5 µM) of 0.633 and a relative viability (HARA; first compound 0.005 µM) of 0.615. For the same compound, the relative viability (HARA; first compound 0.01581 µM) was 0.724, the relative viability (HARA; first compound 0.05 µM) was 0.79 and the relative viability (HARA; first compound 0.1581 µM) was 0.641. The relative viability (HARA; first compound 0.5 µM) was 0.831, the relative viability (NCI-H838; first compound 0.005 µM) was 0.933 and the relative viability (NCI-H838; first compound 0.01581 µM) was 0.913. The relative viability (NCI-H838; first compound 0.05 µM) was 1.01, the relative viability (NCI-H838; first compound 0.5 µM) was 0.87 and the relative viability (A-427; first compound 0.005 µM) was 1.02. For the same compound, the relative viability (A-427; first compound 0.01581 µM) was 1.04, the relative viability (A-427; first compound 0.05 µM) was 1.04 and the relative viability (A-427; first compound 0.1581 µM) was 0.96. The relative viability (A-427; first compound 0.5 µM) was 1.06, the relative viability (NCI-H1792; first compound 0.005 µM) was 0.901 and the relative viability (NCI-H1792; first compound 0.01581 µM) was 0.925. The relative viability (NCI-H1792; first compound 0.05 µM) was 0.922, the relative viability (NCI-H1792; first compound 0.1581 µM) was 0.841 and the relative viability (NCI-H1792; first compound 0.5 µM) was 1.01. The relative viability (NCI-H650; first compound 0.005 µM) was 0.759, the relative viability (NCI-H650; first compound 0.01581 µM) was 0.807 and the relative viability (NCI-H650; first compound 0.05 µM) was 0.844. For the same compound, the relative viability (NCI-H650; first compound 0.1581 µM) was 0.415, the relative viability (NCI-H650; first compound 0.5 µM) was 0.535 and the relative viability (HCC-44; first compound 0.005 µM) was 0.95. For the same compound, the relative viability (HCC-44; first compound 0.01581 µM) was 0.991, the relative viability (HCC-44; first compound 0.05 µM) was 1.01 and the relative viability (HCC-44; first compound 0.1581 µM) was 0.991. It also gave a relative viability (HCC-44; first compound 0.5 µM) of 0.952, a relative viability (NCI-H596; first compound 0.005 µM) of 0.998 and a relative viability (NCI-H596; first compound 0.01581 µM) of 1.04. It also gave a relative viability (NCI-H596; first compound 0.05 µM) of 1.04, a relative viability (NCI-H596; first compound 0.1581 µM) of 1.04 and a relative viability (NCI-H596; first compound 0.5 µM) of 1.08. The relative viability (SK-MES-1; first compound 0.005 µM) was 0.421, the relative viability (SK-MES-1; first compound 0.01581 µM) was 0.446 and the relative viability (SK-MES-1; first compound 0.05 µM) was 0.5. It also gave a relative viability (SK-MES-1; first compound 0.1581 µM) of 0.437, a relative viability (SK-MES-1; first compound 0.5 µM) of 0.509 and a relative viability (NCI-H358; first compound 0.005 µM) of 0.476. For the same compound, the relative viability (NCI-H358; first compound 0.01581 µM) was 0.563, the relative viability (NCI-H358; first compound 0.05 µM) was 0.479 and the relative viability (NCI-H358; first compound 0.1581 µM) was 0.435. The relative viability (NCI-H358; first compound 0.5 µM) was 0.499, the relative viability (NCI-H1437; first compound 0.005 µM) was 0.771 and the relative viability (NCI-H1437; first compound 0.01581 µM) was 0.8. For the same compound, the relative viability (NCI-H1437; first compound 0.05 µM) was 0.777, the relative viability (NCI-H1437; first compound 0.1581 µM) was 0.824 and the relative viability (NCI-H1437; first compound 0.5 µM) was 0.708. The relative viability (NCI-H23; first compound 0.005 µM) was 1.1, the relative viability (NCI-H23; first compound 0.01581 µM) was 1.37 and the relative viability (NCI-H23; first compound 0.05 µM) was 1.09. For the same compound, the relative viability (NCI-H23; first compound 0.1581 µM) was 0.858, the relative viability (NCI-H23; first compound 0.5 µM) was 0.942 and the relative viability (COR-L23; first compound 0.005 µM) was 0.902. The relative viability (COR-L23; first compound 0.01581 µM) was 0.99, the relative viability (COR-L23; first compound 0.05 µM) was 0.991 and the relative viability (COR-L23; first compound 0.1581 µM) was 0.928. It also gave a relative viability (COR-L23; first compound 0.5 µM) of 0.67, a relative viability (HCC-15; first compound 0.005 µM) of 0.83 and a relative viability (HCC-15; first compound 0.01581 µM) of 0.899. It also gave a relative viability (HCC-15; first compound 0.05 µM) of 0.795, a relative viability (HCC-15; first compound 0.1581 µM) of 0.977 and a relative viability (HCC-15; first compound 0.5 µM) of 0.831. For the same compound, the relative viability (201T; first compound 0.005 µM) was 1.04, the relative viability (201T; first compound 0.01581 µM) was 1.06 and the relative viability (201T; first compound 0.05 µM) was 1.01. The relative viability (201T; first compound 0.1581 µM) was 0.988, the relative viability (201T; first compound 0.5 µM) was 1.07 and the relative viability (NCI-H1975; first compound 0.005 µM) was 0.792. For the same compound, the relative viability (NCI-H1975; first compound 0.01581 µM) was 0.871, the relative viability (NCI-H1975; first compound 0.05 µM) was 0.864 and the relative viability (NCI-H1975; first compound 0.1581 µM) was 0.755. For the same compound, the relative viability (NCI-H1975; first compound 0.5 µM) was 0.723, the relative viability (HCC-827; first compound 0.005 µM) was 0.244 and the relative viability (HCC-827; first compound 0.01581 µM) was 0.181. It also gave a relative viability (HCC-827; first compound 0.05 µM) of 0.204, a relative viability (HCC-827; first compound 0.1581 µM) of 0.233 and a relative viability (HCC-827; first compound 0.5 µM) of 0.842.
